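Grown in 96-well plates, cells were treated for 48 hours with each compound at five concentrations. Insufficient inhibition: endpoint recorded as highest concentration tested. The concentration for 50% growth inhibition is given as GI50. TGI: concentration producing complete growth inhibition.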 Where a SMILES comes first, the peptide text is derived from it. [ ]: non-standard residue; d: D form. pGlu = O=C1CC[CH](C(=O)O)N1
Experiments:
Test in all cases: NCI tumour cell line growth inhibition, 48 h
DU-145 prostate = tested on: DU-145 prostate
HCT-116 colon = tested on: HCT-116 colon
HOP-62 NSCLC = tested on: HOP-62 NSCLC
LOX IMVI melanoma = tested on: LOX IMVI melanoma
MDA-MB-435 = tested on: MDA-MB-435
OVCAR-3 ovarian = tested on: OVCAR-3 ovarian
RPMI-8226 leukemia = tested on: RPMI-8226 leukemia
SF-295 CNS = tested on: SF-295 CNS
SK-MEL-2 melanoma = tested on: SK-MEL-2 melanoma
SK-MEL-28 melanoma = tested on: SK-MEL-28 melanoma
SK-MEL-5 melanoma = tested on: SK-MEL-5 melanoma
SW-620 colon = tested on: SW-620 colon

## COc1ccc(/C=C2\N=C(N3CCCC(CO)C3)NC2=O)cc1 (stereo not drawn)
DU-145 prostate
  TGI: > 100 µM
HCT-116 colon
  TGI: > 100 µM
HOP-62 NSCLC
  TGI: > 100 µM
LOX IMVI melanoma
  TGI: > 100 µM
MDA-MB-435
  TGI: > 100 µM
OVCAR-3 ovarian
  TGI: > 100 µM
RPMI-8226 leukemia
  TGI: > 100 µM
SF-295 CNS
  TGI: > 100 µM
SK-MEL-2 melanoma
  TGI: > 100 µM
SK-MEL-28 melanoma
  TGI: > 100 µM
SK-MEL-5 melanoma
  TGI: > 100 µM
SW-620 colon
  TGI: > 100 µM

## FC1(F)ON2CCc3ccccc3C2[C@H]1c1ccccc1 (stereo partly drawn)
DU-145 prostate
  GI50: > 100 µM
  TGI: > 100 µM
HCT-116 colon
  TGI: > 100 µM
HOP-62 NSCLC
  TGI: > 100 µM
LOX IMVI melanoma
  TGI: > 100 µM
MDA-MB-435
  GI50: > 100 µM
  TGI: > 100 µM
OVCAR-3 ovarian
  TGI: > 100 µM
RPMI-8226 leukemia
  GI50: > 100 µM
  TGI: > 100 µM
SF-295 CNS
  GI50: > 100 µM
  TGI: > 100 µM
SK-MEL-2 melanoma
  GI50: > 100 µM
  TGI: > 100 µM
SK-MEL-28 melanoma
  GI50: > 100 µM
  TGI: > 100 µM
SK-MEL-5 melanoma
  GI50: > 100 µM
  TGI: > 100 µM
SW-620 colon
  GI50: > 100 µM
  TGI: > 100 µM

## COC(NC(=O)Nc1ccc(C)cc1)(C(F)(F)F)C(F)(F)F
DU-145 prostate
  TGI: > 100 µM
HCT-116 colon
  TGI: > 100 µM
HOP-62 NSCLC
  TGI: > 100 µM
LOX IMVI melanoma
  TGI: > 100 µM
MDA-MB-435
  TGI: > 100 µM
OVCAR-3 ovarian
  TGI: > 100 µM
RPMI-8226 leukemia
  TGI: 74.8 µM
SF-295 CNS
  TGI: 90.7 µM
SK-MEL-28 melanoma
  TGI: > 100 µM
SK-MEL-5 melanoma
  TGI: 30.6 µM
SW-620 colon
  TGI: > 100 µM

## CC(C)(C)C1=C(Br)C(F)(C(C)(C)C)OP1(=O)c1ccccc1 (stereo not drawn)
DU-145 prostate
  TGI: 32 µM
HCT-116 colon
  TGI: 31.8 µM
HOP-62 NSCLC
  TGI: 30 µM
LOX IMVI melanoma
  TGI: 36.4 µM
MDA-MB-435
  TGI: 29.9 µM
OVCAR-3 ovarian
  TGI: 28.8 µM
SF-295 CNS
  TGI: 37 µM
SK-MEL-2 melanoma
  TGI: 36.5 µM
SK-MEL-28 melanoma
  TGI: 34.1 µM
SK-MEL-5 melanoma
  TGI: 22.9 µM
SW-620 colon
  TGI: 32.3 µM

## CN1CCC2(CC1)SSC1(CCN(C)CC1)S2
HCT-116 colon
  TGI: > 100 µM
HOP-62 NSCLC
  TGI: > 100 µM
LOX IMVI melanoma
  TGI: > 100 µM
MDA-MB-435
  TGI: > 100 µM
RPMI-8226 leukemia
  TGI: > 100 µM
SF-295 CNS
  TGI: > 100 µM
SK-MEL-2 melanoma
  TGI: > 100 µM
SK-MEL-28 melanoma
  TGI: > 100 µM
SK-MEL-5 melanoma
  TGI: > 100 µM
SW-620 colon
  TGI: > 100 µM

## O=C1C(Cl)=C(Cl)C(=O)C(CCNc2nccs2)=C1Cl
DU-145 prostate
  TGI: > 100 µM
HCT-116 colon
  TGI: 68.4 µM
HOP-62 NSCLC
  TGI: > 100 µM
MDA-MB-435
  TGI: 42 µM
OVCAR-3 ovarian
  TGI: 49.8 µM
SF-295 CNS
  TGI: > 100 µM
SK-MEL-2 melanoma
  TGI: 75.6 µM
SK-MEL-28 melanoma
  TGI: > 100 µM
SK-MEL-5 melanoma
  TGI: 50.1 µM
SW-620 colon
  TGI: > 100 µM

## C=C1C2CCC3C4(C)CCCC(C)(C(=O)O)C4CCC3(C2)C1OC(=O)/C(C)=C/C (stereo not drawn)
DU-145 prostate
  TGI: > 100 µM
HCT-116 colon
  TGI: > 100 µM
HOP-62 NSCLC
  TGI: > 100 µM
LOX IMVI melanoma
  TGI: > 100 µM
MDA-MB-435
  TGI: > 100 µM
OVCAR-3 ovarian
  TGI: 41 µM
SF-295 CNS
  TGI: 44.2 µM
SK-MEL-2 melanoma
  TGI: > 100 µM
SK-MEL-28 melanoma
  TGI: > 100 µM
SK-MEL-5 melanoma
  TGI: 75.6 µM
SW-620 colon
  TGI: > 100 µM

## CC1OC(OC2C(O)COC(OC3C(C)OC(OC4C(OC(=O)[C@]56CCC(C)(C)C[C@@H]5C5=CCC7[C@@]8(C)C[C@H](O)[C@H](OC9OC(CO)C(O)C(O)C9O)[C@@](C)(CO)[C@@H]8CC[C@@]7(C)[C@]5(C)CC6)OCC(O)C4O)C(O)C3O)C2O)C(O)C(O)C1O (stereo partly drawn)
DU-145 prostate
  TGI: 37.5 µM
HCT-116 colon
  TGI: 57.2 µM
HOP-62 NSCLC
  TGI: 37.7 µM
LOX IMVI melanoma
  TGI: 46 µM
MDA-MB-435
  TGI: 57.7 µM
OVCAR-3 ovarian
  TGI: 40.6 µM
RPMI-8226 leukemia
  TGI: > 100 µM
SF-295 CNS
  TGI: 48 µM
SK-MEL-28 melanoma
  TGI: 32.2 µM
SK-MEL-5 melanoma
  TGI: 39.8 µM
SW-620 colon
  TGI: 46.5 µM

## c1ccc2c3c(ccc2c1)-c1[nH]ncc1CCO3
HCT-116 colon
  TGI: > 88.5 µM
HOP-62 NSCLC
  TGI: > 91.9 µM
LOX IMVI melanoma
  TGI: > 93.6 µM
OVCAR-3 ovarian
  TGI: > 82.1 µM
SF-295 CNS
  TGI: > 86.1 µM
SK-MEL-2 melanoma
  TGI: 85.3 µM
SK-MEL-28 melanoma
  TGI: > 100 µM
SK-MEL-5 melanoma
  TGI: > 71.3 µM
SW-620 colon
  TGI: > 100 µM

## CCCn1cc2c(=O)[nH]c(SC)nc2n1
HCT-116 colon
  TGI: > 100 µM
LOX IMVI melanoma
  TGI: > 100 µM
RPMI-8226 leukemia
  TGI: > 100 µM
SF-295 CNS
  TGI: > 100 µM
SK-MEL-2 melanoma
  TGI: > 100 µM
SK-MEL-28 melanoma
  TGI: > 100 µM
SK-MEL-5 melanoma
  TGI: > 100 µM
SW-620 colon
  TGI: > 100 µM

## Cc1ccc2c(c1)nc1n2C(c2c(F)cccc2F)SC1 (stereo not drawn)
HCT-116 colon
  TGI: 72.3 µM
HOP-62 NSCLC
  TGI: > 100 µM
LOX IMVI melanoma
  TGI: > 100 µM
MDA-MB-435
  TGI: > 100 µM
OVCAR-3 ovarian
  TGI: > 100 µM
RPMI-8226 leukemia
  TGI: > 100 µM
SF-295 CNS
  TGI: > 100 µM
SK-MEL-2 melanoma
  TGI: 48.2 µM
SK-MEL-28 melanoma
  TGI: > 100 µM
SW-620 colon
  TGI: > 100 µM

## CO/C=C(/C(=O)OC)[C@@H]1C[C@@H]1c1ccc2ccccc2c1
DU-145 prostate
  TGI: > 100 µM
HCT-116 colon
  TGI: 44.1 µM
HOP-62 NSCLC
  TGI: > 100 µM
MDA-MB-435
  TGI: 35.1 µM
OVCAR-3 ovarian
  TGI: 73.9 µM
RPMI-8226 leukemia
  TGI: 41.9 µM
SF-295 CNS
  TGI: > 100 µM
SK-MEL-2 melanoma
  TGI: 35.1 µM
SK-MEL-28 melanoma
  TGI: 81.4 µM
SK-MEL-5 melanoma
  TGI: 30.3 µM

## COc1ccc(C(=O)/C=C/c2ccc(OCCCCCCCCCCOc3ccc(/C=C/C(=O)c4ccc(OC)cc4)cc3)cc2)cc1
DU-145 prostate
  TGI: > 100 µM
HCT-116 colon
  TGI: > 100 µM
HOP-62 NSCLC
  TGI: > 100 µM
MDA-MB-435
  TGI: > 100 µM
RPMI-8226 leukemia
  TGI: > 100 µM
SF-295 CNS
  TGI: > 100 µM
SK-MEL-2 melanoma
  TGI: > 100 µM
SK-MEL-28 melanoma
  TGI: > 100 µM
SK-MEL-5 melanoma
  TGI: > 100 µM
SW-620 colon
  TGI: > 100 µM

## CC(NC(=O)C1CCC(=O)N1)C(=O)N1CCCC1C(N)=O (stereo not drawn) ([pGlu]-Ala-Pro-NH2; configuration not given here)
DU-145 prostate
  TGI: > 100 µM
HCT-116 colon
  TGI: > 100 µM
HOP-62 NSCLC
  TGI: > 100 µM
LOX IMVI melanoma
  TGI: > 100 µM
MDA-MB-435
  TGI: > 100 µM
OVCAR-3 ovarian
  TGI: > 100 µM
RPMI-8226 leukemia
  TGI: > 100 µM
SF-295 CNS
  TGI: > 100 µM
SK-MEL-28 melanoma
  TGI: > 100 µM
SK-MEL-5 melanoma
  TGI: > 100 µM
SW-620 colon
  TGI: > 100 µM

## COC(=O)c1ccc(NCc2cc(OC)ccc2OC)cc1
DU-145 prostate
  TGI: > 100 µM
HCT-116 colon
  TGI: > 100 µM
LOX IMVI melanoma
  TGI: > 100 µM
MDA-MB-435
  TGI: > 100 µM
OVCAR-3 ovarian
  TGI: > 100 µM
RPMI-8226 leukemia
  TGI: > 100 µM
SK-MEL-2 melanoma
  TGI: > 100 µM
SK-MEL-28 melanoma
  TGI: > 100 µM
SK-MEL-5 melanoma
  TGI: > 100 µM
SW-620 colon
  TGI: > 100 µM

## COC(=O)C(Cc1c[nH]c2ccccc12)NC(=O)C(Cc1cnc[nH]1)NC(=O)C1CCC(=O)N1C(=O)OCc1ccccc1 (stereo not drawn)
HCT-116 colon
  TGI: > 100 µM
HOP-62 NSCLC
  TGI: > 100 µM
RPMI-8226 leukemia
  TGI: > 100 µM
SK-MEL-2 melanoma
  TGI: > 100 µM
SK-MEL-28 melanoma
  TGI: > 100 µM
SK-MEL-5 melanoma
  TGI: > 100 µM
SW-620 colon
  TGI: > 100 µM

## COC(=O)C1=CO[C@@H](C)[C@@H]2Cn3ccc4c5ccccc5nc-4c3C[C@H]12
HCT-116 colon
  TGI: > 100 µM
HOP-62 NSCLC
  TGI: > 100 µM
LOX IMVI melanoma
  TGI: > 100 µM
OVCAR-3 ovarian
  TGI: > 100 µM
RPMI-8226 leukemia
  TGI: > 100 µM
SF-295 CNS
  TGI: > 100 µM
SK-MEL-2 melanoma
  TGI: > 100 µM
SK-MEL-28 melanoma
  TGI: > 100 µM
SK-MEL-5 melanoma
  TGI: > 100 µM
SW-620 colon
  TGI: > 100 µM

## Cc1nc(OCc2ccccc2)c2ncn(CCO)c2n1
DU-145 prostate
  TGI: > 100 µM
HCT-116 colon
  TGI: > 100 µM
LOX IMVI melanoma
  TGI: > 100 µM
MDA-MB-435
  TGI: > 100 µM
OVCAR-3 ovarian
  TGI: > 100 µM
RPMI-8226 leukemia
  TGI: > 100 µM
SF-295 CNS
  TGI: > 100 µM
SK-MEL-2 melanoma
  TGI: > 100 µM
SK-MEL-28 melanoma
  TGI: > 100 µM
SK-MEL-5 melanoma
  TGI: > 100 µM
SW-620 colon
  TGI: > 100 µM

## O=c1[nH]c(NCc2cccnc2)nc2nc[nH]c12
DU-145 prostate
  TGI: > 100 µM
HCT-116 colon
  TGI: > 100 µM
HOP-62 NSCLC
  TGI: > 100 µM
LOX IMVI melanoma
  TGI: > 100 µM
MDA-MB-435
  TGI: > 100 µM
OVCAR-3 ovarian
  TGI: > 100 µM
RPMI-8226 leukemia
  TGI: > 100 µM
SF-295 CNS
  TGI: > 100 µM
SK-MEL-2 melanoma
  TGI: > 100 µM
SK-MEL-5 melanoma
  TGI: > 100 µM
SW-620 colon
  TGI: > 100 µM
